Among the data in patent US8629112B2, “Template-fixed peptidomimetics with CXCR7 modulating activity” (priority 2010, dated 2014) are EC50 values, retold here.

Square brackets hold non-standard residues; d marks the D form. Peptide text beside a SMILES is read from it. 1Nal = N[C@@H](Cc1cccc2ccccc12)C(=O)O; d1Nal = N[C@H](Cc1cccc2ccccc12)C(=O)O; Tic = O=C(O)[C@@H]1Cc2ccccc2CN1; dPip = O=C(O)[C@H]1CCCCN1; Orn = NCCC[C@H](N)C(=O)O; Aze = O=C(O)[C@@H]1CCN1; Dab = NCC[C@H](N)C(=O)O; Abu = CC[C@H](N)C(=O)O

This test deals with T1, CXCR7 (Homo sapiens, UniProt P25106).
T1 construct: host or cells: CHO (PathHunter CHO-CXCR7 β-arrestin cells)
T1 sequence (P25106 whole entry): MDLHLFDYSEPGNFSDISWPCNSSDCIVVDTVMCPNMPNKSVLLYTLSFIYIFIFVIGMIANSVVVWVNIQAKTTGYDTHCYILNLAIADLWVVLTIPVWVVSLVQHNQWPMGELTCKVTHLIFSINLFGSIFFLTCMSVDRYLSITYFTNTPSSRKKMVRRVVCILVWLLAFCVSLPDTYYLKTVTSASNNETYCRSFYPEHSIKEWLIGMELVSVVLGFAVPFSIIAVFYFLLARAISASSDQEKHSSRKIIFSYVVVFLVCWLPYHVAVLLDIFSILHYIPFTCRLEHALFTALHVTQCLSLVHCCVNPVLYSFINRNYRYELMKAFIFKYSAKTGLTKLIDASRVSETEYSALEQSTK
In words: CXCR7 β-arrestin recruitment assay (PathHunter CHO-CXCR7, agonistic assay). It is filed as cell-based. The note with it: CHO CXCR7 β-arrestin cells, agonistic assay, 90 min at 37° C., chemiluminescence; read-out: β-Arrestin EC50. The method, then: Lyophilized peptides were weighed on a Microbalance (Mettler MX5) and dissolved in DMSO to a final concentration of 10 mM unless otherwise stated. Stock solutions were kept at +4° C., and protected from light.
2.2 CXCR7 β-Arrestin Recruitment Assay
The PathHunter CHO-CXCR7 (DiscoverX) assay was performed according to the manufacturer's protocol. In brief, CHO CXCR7 β-arrestin cells were seeded at a density of 5000 cells per well in 40 μl of F12 medium in a 96-half volume well black culture plate and incubated overnight at 37° C. in a humidified atmosphere with 5% CO2. The next day, serial dilutions of PEM compounds have been prepared in DMSO and subsequently diluted in HBSS buffer containing 0.1% BSA.
For agonistic assay, 10 μl of compound solution or a solution of stromal cell-derived factor-1 (SDF-1) as positive control was added to the cells with a final DMSO concentration of 1% (v/v). The plate was incubated for 90 min at 37° C. in 5% CO2 incubator with gentle shaking (300 rpm) before addition of 40 ul of detection reagent per well. Reaction was developed 90 min at room temperature in the dark with shaking, and chemiluminescence was measured with a Topcount (Perkin Elmer) luminescence counter.

In general, EC50 refers to the midpoint of the concentration-response curve. For `NCCC[C@@H]1NC(=O)[C@H](Cc2c[nH]c3ccccc23)NC(=O)[C@@H](Cc2ccccc2)NC(=O)[C@H](Cc2c[nH]c3ccccc23)NC(=O)[C@@H]2Cc3ccccc3CN2C(=O)[C@H]2CCCN2C1=O` [compound 21, cyclo(-Trp-^DPhe-Trp-Orn-^DPro-Tic-)] (cyclo([Orn][dP][Tic]W[dF]W)), the EC50 amounted to 12.1 nM.
In the case of `NCC[C@@H]1NC(=O)[C@H](Cc2c[nH]c3ccccc23)NC(=O)[C@@H](Cc2ccccc2)NC(=O)[C@H](Cc2c[nH]c3ccccc23)NC(=O)[C@@H]2Cc3ccccc3CN2C(=O)[C@H]2CCCN2C1=O` [compound 22, cyclo(-Trp-^DPhe-Trp-Dab-^DPro-Tic-)] (cyclo([Dab][dP][Tic]W[dF]W)), the EC50 was determined as 12.6 ± 1.6 nM.
`O=C1N[C@@H](Cc2ccc(O)cc2)C(=O)N2CCC[C@@H]2C(=O)N2Cc3ccccc3C[C@H]2C(=O)N[C@@H](Cc2c[nH]c3ccccc23)C(=O)N[C@H](Cc2ccccc2)C(=O)N[C@H]1Cc1c[nH]c2ccccc12` [compound 24, cyclo(-Trp-^DPhe-Trp-Tyr-^DPro-Tic-)] (cyclo([Tic]W[dF]WY[dP])): the EC50 stood at 94.5 ± 54.1 nM.
As to `N=C(N)NCCC[C@@H]1NC(=O)[C@H](Cc2c[nH]c3ccccc23)NC(=O)[C@@H](CCCNC(=N)N)NC(=O)[C@H](Cc2cccc3ccccc23)NC(=O)[C@@H]2Cc3ccccc3CN2C(=O)[C@H]2CCCN2C1=O` [compound 28, cyclo(-1Nal-^DArg-Trp-Arg-^DPro-Tic-)] (cyclo([1Nal][dR]WR[dP][Tic])), the EC50 was 280 ± 115 nM.
Regarding `CC[C@H](C)[C@@H]1NC(=O)[C@@H](Cc2c[nH]cn2)NC(=O)[C@H](Cc2cccc3ccccc23)NC(=O)[C@@H]2Cc3ccccc3CN2C(=O)[C@H]2CCCN2C(=O)[C@H](CCCNC(=N)N)NC1=O` [compound 29, cyclo(-1Nal-^DHis-Ile-Arg-^DPro-Tic-)] (cyclo([1Nal][dH]IR[dP][Tic])), the EC50 was determined as 347 ± 110 nM.
As to `CC[C@@H]1NC(=O)[C@@H]2Cc3ccccc3CN2C(=O)[C@H]2CCCN2C(=O)[C@H](Cc2c[nH]c3ccccc23)NC(=O)[C@H](CCCNC(=N)N)NC(=O)[C@@H](CCCNC(=N)N)NC1=O` [compound 30, cyclo(-Abu-^DArg-Arg-Trp-^DPro-Tic-)] (cyclo([Abu][dR]RW[dP][Tic])), the EC50 came out at 97.5 ± 6.3 nM.
Regarding `N=C(N)NCCC[C@@H]1NC(=O)[C@H](Cc2c[nH]cn2)NC(=O)[C@@H](Cc2c[nH]c3ccccc23)NC(=O)[C@H](Cc2c[nH]cn2)NC(=O)[C@@H]2Cc3ccccc3CN2C(=O)[C@H]2CCCN2C1=O` [compound 31, cyclo(-His-^DTrp-His-Arg-^DPro-Tic-)] (cyclo(HR[dP][Tic]H[dW])), the EC50 worked out at 226 ± 13.2 nM.
The result for `CC[C@H](C)[C@@H]1NC(=O)[C@@H]2Cc3ccccc3CN2C(=O)[C@H]2CCCN2C(=O)[C@H](CCCNC(=N)N)NC(=O)[C@H](Cc2c[nH]c3ccccc23)NC(=O)[C@@H](Cc2c[nH]cn2)NC1=O` [compound 32, cyclo(-Ile-^DHis-Trp-Arg-^DPro-Tic-)] (cyclo(I[dH]WR[dP][Tic])) reads 70.8 ± 14.3 nM; that for `CC[C@H](C)[C@@H]1NC(=O)[C@@H](CCCNC(=N)N)NC(=O)[C@H]([C@@H](C)CC)NC(=O)[C@@H]2Cc3ccccc3CN2C(=O)[C@H]2CCCN2C(=O)[C@H](CCCNC(=N)N)NC1=O` [compound 33, cyclo(-Ile-^DArg-Ile-Arg-^DPro-Tic-)] (cyclo(IR[dP][Tic]I[dR])), 34.3 ± 3.6 nM; that for `CC[C@H](C)[C@@H]1NC(=O)[C@@H]2Cc3ccccc3CN2C(=O)[C@H]2CCCN2C(=O)[C@H](CCCNC(=N)N)NC(=O)[C@H](Cc2c[nH]cn2)NC(=O)[C@@H](Cc2c[nH]c3ccccc23)NC1=O` [compound 34, cyclo(-Ile-^DTrp-His-Arg-^DPro-Tic-)] (cyclo(HR[dP][Tic]I[dW])), 317 ± 360 nM.
Take `N=C(N)NCCC[C@@H]1NC(=O)[C@@H]2Cc3ccccc3CN2C(=O)[C@H]2CCCN2C(=O)[C@H](CCCNC(=N)N)NC(=O)[C@H](Cc2c[nH]cn2)NC(=O)[C@@H](Cc2c[nH]c3ccccc23)NC1=O` [compound 35, cyclo(-Arg-^DTrp-His-Arg-^DPro-Tic-)] (cyclo(HR[dP][Tic]R[dW])): the EC50 came out at 234 ± 132 nM.
The result for `N=C(N)NCCC[C@@H]1NC(=O)[C@@H]2Cc3ccccc3CN2C(=O)[C@H]2CCCN2C(=O)[C@H](CCCNC(=N)N)NC(=O)[C@H](Cc2c[nH]c3ccccc23)NC(=O)[C@@H](Cc2c[nH]cn2)NC1=O` [compound 36, cyclo(-Arg-^DHis-Trp-Arg-^DPro-Tic-)] (cyclo(R[dH]WR[dP][Tic])) reads 144 ± 136 nM; that for `N=C(N)NCCC[C@@H]1NC(=O)[C@H](Cc2c[nH]cn2)NC(=O)[C@@H](CCCNC(=N)N)NC(=O)[C@H](Cc2c[nH]c3ccccc23)NC(=O)[C@@H]2Cc3ccccc3CN2C(=O)[C@H]2CCCN2C1=O` [compound 37, cyclo(-Trp-^DArg-His-Arg-^DPro-Tic-)] (cyclo(HR[dP][Tic]W[dR])), 348 ± 55.6 nM.
The result for `N=C(N)NCCC[C@H]1NC(=O)[C@H](Cc2c[nH]c3ccccc23)NC(=O)[C@@H]2Cc3ccccc3CN2C(=O)[C@H]2CCCN2C(=O)[C@H](Cc2c[nH]c3ccccc23)NC(=O)[C@H](Cc2c[nH]cn2)NC1=O` [compound 38, cyclo(-Trp-^DArg-His-Trp-^DPro-Tic-)] (cyclo(HW[dP][Tic]W[dR])) reads 217 ± 12.5 nM.
Turning to `O=C1N[C@@H](Cc2c[nH]c3ccccc23)C(=O)N2CCC[C@@H]2C(=O)N2Cc3ccccc3C[C@H]2C(=O)N[C@@H](Cc2c[nH]cn2)C(=O)N[C@H](Cc2cccc3ccccc23)C(=O)N[C@H]1Cc1c[nH]cn1` [compound 39, cyclo(-His-^D1Nal-His-Trp-^DPro-Tic-)] (cyclo(HW[dP][Tic]H[d1Nal])), the EC50 was 269 ± 80.1 nM.
For `N=C(N)NCCC[C@@H]1NC(=O)[C@H](Cc2c[nH]c3ccccc23)NC(=O)[C@@H](Cc2ccccc2)NC(=O)[C@H](Cc2c[nH]c3ccccc23)NC(=O)[C@@H]2CCCN2C(=O)[C@H]2CCCCN2C1=O` [compound 41, cyclo(-Trp-^DPhe-Trp-Arg-^DPip-Pro-)] (cyclo(PW[dF]WR[dPip])), the EC50 turned out to be 78.7 ± 0.9 nM.
Take `CC[C@H](C)[C@@H]1NC(=O)[C@@H](CCCNC(=N)N)NC(=O)[C@H](Cc2cccc3ccccc23)NC(=O)[C@@H]2CCN2C(=O)[C@H]2CCCN2C(=O)[C@H](CCCNC(=N)N)NC1=O` [compound 43, cyclo(-1Nal-^DArg-Ile-Arg-^DPro-Azt-)] (cyclo([1Nal][dR]IR[dP][Aze])): the EC50 came to 41.2 ± 8.3 nM.
The figure for `N=C(N)NCCC[C@@H]1NC(=O)[C@H](Cc2c[nH]c3ccccc23)NC(=O)[C@@H](CCCNC(=N)N)NC(=O)[C@H](Cc2cccc3ccccc23)NC(=O)[C@@H]2CCN2C(=O)[C@H]2CCCN2C1=O` [compound 44, cyclo(-1Nal-^DArg-Trp-Arg-^DPro-Azt-)] (cyclo([1Nal][dR]WR[dP][Aze])) is 146 ± 81.8 nM; for `N=C(N)NCCC[C@@H]1NC(=O)[C@H](Cc2ccc(O)cc2)NC(=O)[C@@H](Cc2c[nH]cn2)NC(=O)[C@H](Cc2cccc3ccccc23)NC(=O)[C@@H]2CCN2C(=O)[C@H]2CCCN2C1=O` [compound 45, cyclo(-1Nal-^DHis-Tyr-Arg-^DPro-Azt-)] (cyclo([1Nal][dH]YR[dP][Aze])) it is 44.4 ± 25.4 nM; for `CC[C@H](C)[C@@H]1NC(=O)[C@H](Cc2c[nH]c3ccccc23)NC(=O)[C@@H](CCCNC(=N)N)NC(=O)[C@H](Cc2c[nH]c3ccccc23)NC(=O)[C@@H]2CCN2C(=O)[C@H]2CCCN2C1=O` [compound 46, cyclo(-Trp-^DArg-Trp-Ile-^DPro-Azt-)] (cyclo([Aze]W[dR]WI[dP])) it is 208 ± 50.2 nM.
